# Literature values as cited in article PMC5766568, “Effective photo-enhancement of cellular activity of fluorophore-octaarginine antisense PNA conjugates correlates with singlet oxygen formation, endosomal escape and chromophore lipophilicity” (Scientific Reports, 2018).
# Where two headings read alike, the source gives them in different places.
# Description: This could be due to a low quantum yield for singlet oxygen formation, which unfortunately is not available.
Compound,log P (octanol/water),log P (octanol/water) (fluorophore alone)
"N=c1ccc2c(-c3ccc(C(=O)O)cc3C(=O)O)c3ccc(N)c(S(=O)(=O)O)c3oc-2c1S(=O)(=O)O [AF488, Alexa Fluor 488]",−1.44,–
"CN(C)c1ccc2c(-c3ccccc3C(=O)[O-])c3ccc(N(C)C)cc3[o+]c2c1 [TMR fluorophore, Tetramethylrhodamine]",–,2.92
